The source of these data is article PMC6112750 (Oncotarget, 2018).

Each structure is given as a SMILES string.

This experiment addresses T1, SUV39H2 (Homo sapiens, UniProt Q9H5I1).
T1 construct: N-terminal GST fused SUV39H2
Briefly: radiometric SPA methyltransferase assay with biotin-H3 ([…]-21) peptide and [3H]-SAM. The format is biochemical.

T1 sequence (Q9H5I1 whole entry, the tested form may be a part): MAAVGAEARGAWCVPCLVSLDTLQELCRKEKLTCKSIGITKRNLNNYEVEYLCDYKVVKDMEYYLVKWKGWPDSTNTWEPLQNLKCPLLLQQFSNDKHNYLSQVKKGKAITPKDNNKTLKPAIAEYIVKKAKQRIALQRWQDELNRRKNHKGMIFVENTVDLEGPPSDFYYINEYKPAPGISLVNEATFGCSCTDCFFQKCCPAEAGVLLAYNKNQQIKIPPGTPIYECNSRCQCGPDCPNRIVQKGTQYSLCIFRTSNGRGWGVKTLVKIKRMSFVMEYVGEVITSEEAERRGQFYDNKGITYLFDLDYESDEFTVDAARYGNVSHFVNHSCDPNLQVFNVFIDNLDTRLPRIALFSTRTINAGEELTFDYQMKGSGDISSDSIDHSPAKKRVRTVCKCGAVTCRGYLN

Turning to `COc1cc(OC)c(-c2cn3ccc(N[C@H]4CC[C@@H](NCc5ccc([N+](=O)[O-])cc5)CC4)cc3n2)cc1Cl` [OTS193320, (1s,4s)-N^1-(2-(5-chloro-2,4-dimethoxyphenyl)imidazo[1,2-a]pyridin-7-yl)-N^4-(4-nitrobenzyl)cyclohexane-1,4-diamine], half-maximal inhibition (IC50) required 22.2 nM.
